Consider one compound from US9821027B2, “Method for regenerating cartilage comprising applying a monovalent metal salt of alginic acid and SDF-1” (Mochida Pharmaceutical Co., Ltd., priority 2011, dated 2017).

The subject of test [1] is bone marrow mesenchymal stromal cells (BMSC). The experiment in a line: BMSC proliferation in alginic acid gel beads (Cell Counting Kit-8). In kind it is cell-based, Japanese white rabbit. The note with it: 10 μg/ml SDF-1 or 250 μg/ml AMD3100 in alginic acid gel beads vs alginic acid only, up to 7 days, n=5. The protocol: (§1) Bone marrows were collected from a tibia of a 15-week-old Japanese white rabbit to isolate and culture bone marrow mesenchymal stromal cells (BMSC). Isolation was carried out according to the method of Wakitani et al. (Wakitani S et al., J bone Joint Surg Am, Vol. 76, p 579, 1994). The isolated cells were incubated at 37° C. under humidified 5% CO2 and maintained in monolayer culture.
(§2) Proliferation and differentiation of BMSC were tested by embedding BMSC in alginic acid gel beads. The cells were suspended in a 2% sodium alginate solution. The suspension was dripped in a CaCl2 solution with a pipette for gelation. Ten minutes later, the resulting microcapsules were washed twice with Ca/Mg-free PBS and once with DMED-HG. The resulting beads contained 1×10^6 cells per 40 μl of beads.
The alginic acid gel beads containing 10 μg/ml of SDF-1 or 250 μg/ml of AMD3100 were cultured in DMED-HG containing 10% FBS and 1% antibiotics for 3 hours, 1 day, 2 days, 3 days and 7 days. The cells collected from the alginic acid gel beads were washed with PBS for three times, incubated in 50 mM EDTA (Gibco BRL laboratories) at 37° C. under 5% CO2. Ten minutes later, the cells were centrifuged at 1,500 g for 5 minutes for cell collection and the number of live cells was counted with Cell Counting Kit-8 (Dojindo Laboratories, Tokyo, Japan).
In general terms: Tetrazolium dyes change colour on reduction, which living cells bring about.

The test system is the same in test [2]. As to the kind of experiment: BMSC differentiation into chondrocytes in alginic acid gel beads. Type of test: cell-based, Japanese white rabbit. The note with it: 10 μg/ml SDF-1 or 250 μg/ml AMD3100 in alginic acid gel beads vs alginic acid only, 28 days. The procedure: as §1, §2
Differentiation into chondrocytes in the alginic acid gel beads was tested by culturing BMSC-containing beads in a DMED-HG medium containing 100 μg/ml sodium pyruvate (ICN Biomedicals, Aurora, Ohio), 40 μg/ml proline (ICN Biomedicals), 50 μg/ml ascorbate-2-phosphate (Wako, Osaka, Japan), 1×10^−7M dexamethasone (ICN Biomedicals), 1% ITS plus mix (Sigma-Aldrich, St. Louis., Mo.), 1% antibiotics and 10 ng/ml recombinant human transforming growth factor […] (R&D Systems, Minneapolis, Minn.) (dissolved with 4 mM HCl containing 1 μg/ml bovine serum albumin) for 28 days. The medium was exchanged every three days. […]

Turning to `c1cc(CN2CCCNCCNCCCNCC2)ccc1CN1CCCNCCNCCCNCC1` [AMD3100], the “BMSC proliferation (number of live cells)” value in test [1] is “no significant difference”. In addition, the “differentiation of BMSC into chondrocytes” value in test [2] was “no difference”.
